Assay results published in patent US8859575B2, “Benzoimidazol-2-yl pyrimidine modulators of the histamine h4 receptor” (Janssen Pharmaceutica NV, priority 2013, dated 2014).
“Also recorded” adds a separate entry of the source.

Columns and labels:
[1] = Hygroscopicity and physical (solid form) stability; format: physicochemical; settings: for physical stability: ambient conditions; for conversion to another solid form: aqueous solution, atmosphere, dehydration or recrystallization
[2] = Aqueous solubility at room temperature; format: physicochemical
[3] = target: H4 receptor (Homo sapiens, UniProt Q9H3N8); settings: as described in U.S. Pat. No. 7,507,737, 8,343,989 and others; cited from earlier work
H4 receptor, sequence (Q9H3N8 whole entry): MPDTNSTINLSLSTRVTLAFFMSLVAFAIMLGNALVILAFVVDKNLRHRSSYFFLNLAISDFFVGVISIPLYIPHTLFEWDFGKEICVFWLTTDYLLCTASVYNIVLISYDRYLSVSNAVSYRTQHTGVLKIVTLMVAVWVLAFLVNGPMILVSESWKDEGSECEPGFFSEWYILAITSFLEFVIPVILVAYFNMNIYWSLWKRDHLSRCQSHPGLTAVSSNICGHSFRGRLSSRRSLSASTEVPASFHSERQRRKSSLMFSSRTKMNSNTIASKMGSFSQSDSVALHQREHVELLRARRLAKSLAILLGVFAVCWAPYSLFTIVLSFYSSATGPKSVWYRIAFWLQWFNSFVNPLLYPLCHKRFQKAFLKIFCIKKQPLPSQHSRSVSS

SMILES	hygroscopicity [1]	physical stability [1]	conversion to another solid form [1]	aqueous solubility [2]	relative humidity above which it converts to Compound 3 [1]	H4 receptor modulator activity [3]
Cc1cc(C)c2nc(-c3cnc(NCCCC4CCN(C)CC4)nc3C)[nH]c2c1 [Compound 2.2, 5-(4,6-dimethyl-1H-benzimidazol-2-yl)-4-methyl-N-[3-(1-methyl-4-piperidinyl)-propyl]-2-pyrimidinamine 2,3-dihydroxybutanedioate (1:0.5)]	absorbs water readily	physically stable only when stored in a tightly sealed vial at ambient condition	converts to Compound 3 when exposed to the atmosphere			
Cc1cc(C)c2nc(-c3cnc(NCCCC4CCN(C)CC4)nc3C)[nH]c2c1.O=C(O)C(O)C(O)C(=O)O [Compound 2.1, 5-(4,6-dimethyl-1H-benzimidazol-2-yl)-4-methyl-N-[3-(1-methyl-4-piperidinyl)-propyl]-2-pyrimidinamine 2,3-dihydroxybutanedioate (1:0.5)]	hygroscopic		forms the tetrahydrate Compound 3 in aqueous solution	about 1.1 g/ml	above 70 % relative humidity	
Cc1cc(C)c2nc(-c3cnc(NCCCC4CCN(C)CC4)nc3C)[nH]c2c1 [Compound 2, [5-(4,6-Dimethyl-1H-benzoimidazol-2-yl)-4-methyl-pyrimidin-2-yl]-[3-(1-methyl-piperidin-4-yl)-propyl]-amine]						has H4 receptor modulator activity
Cc1cc(C)c2nc(-c3cnc(NCCCC4CCN(C)CC4)nc3C)[nH]c2c1.O=C(O)C(O)C(O)C(=O)O [Compound 3, 5-(4,6-dimethyl-1H-benzimidazol-2-yl)-4-methyl-N-[3-(1-methyl-4-piperidinyl)-propyl]-2-pyrimidinamine 2,3-dihydroxybutanedioate tetrahydrate (1:0.5:4)]		stable under ambient conditions	converts to Compound 2.2 upon dehydration by heating or in low relative humidity; also recorded: no conversion of Compound 3 to other forms was detected	about 4.1 mg/ml		
